In patent EP0524718A1, “Polyurethane hydrogel compositions for iontophoretic drug delivery” (GENSIA PHARMACEUTICALS, INC., priority 1991, dated 1993) one finds drug degradation data, which are given here for one compound.

The data set can be described thus: Drug stability in hydrogel matrix electrode pads (isocratic HPLC assay). It is filed as physicochemical. Particulars: in Hypol Hydrogel matrix, room temperature and 4°C, after six months.

The structures appear in SMILES notation.

Procedure: Stability of Arbutamine in electrode pads using the hydrogel matrix prepared from Hypol Hydrogel prepolymer was studied using the 3M Red Dot™ Electrode Construction. […] The matrix incorporating the drug was placed in the 3M Red Dot electrode (after removing the gel supplied with the electrode). The electrode was secured in an aluminum pouch with or without a nitrogen flush (as noted). Drug stability studies were carried out at room temperature and 4°C.

With `Cl.Oc1ccc(CCCCNCC(O)c2ccc(O)c(O)c2)cc1` (stereo not shown) [Arbutamine, 1-(3,4-dihydroxyphenyl)-2-(4-(4-hydroxyphenyl)butylamino)ethanol hydrochloride], the drug degradation entry is “no significant drug degradation”.
